The text below walks through data of patent US12534478B2, “Prevention, prophylactic and therapeutic treatment of autoimmune diseases including multiple sclerosis using novel small molecules and compositions thereof” (University of Sharjah, priority 2020, dated 2026).

Entries after “also recorded” stand apart in the source; their conditions may differ.

Data set [1] has as its system demyelination in the cerebellum. Kind of data set: Luxol fast blue staining of cerebellum (demyelination / re-myelination). It is filed as in vivo, SJL/J female mice. The conditions noted are these: 50 μg/mouse IP (FIG. 9). As for the experimental part: (§1) Untreated mice or mice injected with DMSO as a vehicle were used. For positive group, the results regarding the effects of RTX were used. During the course of the EAE disease, the animals were independently observed and monitored daily, and the EAE clinical score was recorded according to the following scoring scheme: 0=no clinical disease, 1=tail flaccidity, 2=hind limb weakness, 3=hind limb paralysis, 4=forelimb paralysis, and 5=moribund or death. The body weight changes were also monitored for all the mice groups. After the termination of the experiment, the mice were sacrificed, and their brains were collected for histological and immunohistochemistry analysis.
FIG. 8 illustrates mouse brain cerebellum (rectangles or squares) was stained with GFAP to determine the degree of glial cell activation. […] Finally, we stained the mice brain cerebellum with Luxol fast blue to determine the degree of re-myelination after treatment with the two drugs.

Data set [2] has as its system CD3^+ T lymphocyte infiltration into the cerebellum. Put plainly: Anti-CD3 staining of cerebellum. Format: in vivo, SJL/J female mice. The settings on record: 50 μg/mouse IP (FIG. 7). Here is the method:
as §1
FIG. 6 illustrates H&E staining of mice cerebellum (rectangles) showing highly inflamed lesions in EAE untreated and vehicle treated mice (arrows). […] Further, infiltration of CD3 cells into the mice cerebellum stained with anti-CD3 was performed.

Data set [3] is described as follows: Body weight of EAE mice during treatment. Format: in vivo. The settings on record: prophylactic, therapeutic or prevention regimen, measured every day up to 45 days (FIG. 5). As for the experimental part:
as §1
(§2) FIG. 5 illustrates the weights of mice measured every day through the course of the experiments, i.e. up to 45 days after the initiation of the disease. FIGS. 5A, 5B and 5C, show the weights of mice after prophylactic, therapeutic or prevention regimen, respectively. Significant values shown in the right panels compared the mice body weights among the various groups. To corroborate the results of clinical scores with histological evaluation, we performed immunohistochemistry analysis to evaluate the effects of the two drugs on the inflammation taking place in the brain. First, we stained the brain cerebellum of these mice with H&E to evaluate the degree of inflammation.

In data set [4] the test system is perivascular inflammatory infiltrates in cerebellum. Put plainly: H&E staining of brain cerebellum (degree of inflammation). Format: in vivo, SJL/J female mice. The conditions noted are these: 50 μg/mouse IP (FIG. 6). As for the experimental part: as §1, §2
Data set [5] relates to experimental autoimmune encephalomyelitis (EAE) model. Put plainly: EAE clinical score in PLP-induced EAE mice. Format: in vivo, SJL/J female mice. The settings on record: for clinical score severity and clinical features (therapeutic effect in EAE mice model): regimen not specified. Here is the method:
The basic experimental approaches to test the efficacy of the compounds in the EAE model were done using the methodologies developed in our laboratory. EAE disease was induced in 4-6 weeks SJL female mice using 200 μg PLP peptide emulsified in complete Freund's adjuvant (CFA) containing 1 mg heat-killed Mycobacterium tuberculosis, injected at four sites in the right and left flanks. Following each injection, 200 ng of Bordetella pertussis toxin PTX) was injected intraperitoneal (IP) on days 0 and 2 post PLP immunization. The mice were divided into several groups: 1. prevention, where they were treated with 50 μg/mouse of SIMR1281 or SIMR1707 starting 15 days before the induction of EAE and continued […]. 2. Prophylactic, mice were treated with 50 μg/moues of SIMR1281 or SIMR1707 starting from day of EAE induction and continued every three days until termination (usually between 40-45 days). 3. Therapeutic, where mice were treated with 50 μg of SIMR1281 or SIMR1707 from the days of disease development (usually between 8-10 post EAE induction), and continued every three days until termination. The procedure for these regimens is shown below: • A. Prophylactic regimen: Mice were injected IP with 50 μg/mouse every 3 days since the initiation of the disease and until termination.
[drawing 3] • B. Therapeutic regimen: Mice were injected IP with 50 μg/mouse every 3 days at the appearance of symptoms (usually […]) days after initiation of the disease and until termination.
[drawing 4] • C. Prevention: The mice were injected IP with 50 μg/mouse of SIMR 1707 or 1281 at days −15, −10, −5, and 0. EAE was induced at day 0.
as §1

Data set [6] deals with GFAP. Kind of data set: GFAP staining of cerebellum (glial cell activation, gliosis). Format: in vivo, SJL/J female mice. The conditions noted are these: 50 μg/mouse IP (FIG. 8). As for the experimental part:
as §1
FIG. 7 illustrates infiltration of CD3^+ lymphocytes into the cerebellum of mice brains (rectangles or squares). […] To further investigate the effects of the drugs on brain inflammation, we examined the activation of glial cells by staining with GFAP which determines the degree of gliosis.

Setting [7] is: prevention regimen, 50 μg/mouse IP on days −15, −10, −5 and 0, EAE induced at day 0, vs vehicle or untreated (FIG. 3C).
The mark [8] stands for this setting: prophylactic regimen, 50 μg/mouse IP every 3 days from EAE induction until termination, vs vehicle or untreated (FIG. 3A).
Setting [9] is: therapeutic regimen, 50 μg/mouse IP every 3 days from appearance of symptoms until termination, vs vehicle or untreated (FIG. 3B).

For `CC1(C)[C@H]2COc3ccc4ccccc4c3[C@H]2N=C2SC(c3ccccc3)=C(c3ccccc3)N21` [SIMR-1281, (8aS,14aS)-9,9-dimethyl-11,12-diphenyl-8a,14a-dihydro-8H,9H-benzo[5,6]chromeno[4,3-d]thiazolo[3,2-a]pyrimidine], the “demyelination / re-myelination (Luxol fast blue)” value in data set [1] (prevention regimen), in data set [1] (prophylactic regimen) and in data set [1] (therapeutic regimen) was “no evidence of demyelination” throughout. In addition, the “CD3^+ T lymphocyte infiltration” value in data set [2] (prevention regimen), in data set [2] (prophylactic regimen) and in data set [2] (therapeutic regimen) was “no evidence of CD3^+ T lymphocyte infiltration; also recorded: no CD3^+ T cell accumulation” in each case. Also, the body weight entry in data set [3] is “significantly increased the weights”. In addition, the “inflammation, perivascular inflammatory infiltrates (H&E)” value in data set [4] (prevention regimen), in data set [4] (prophylactic regimen) and in data set [4] (therapeutic regimen) was “no evidence of any perivascular inflammatory infiltrates; also recorded: no inflammation” each time. The “clinical score severity and clinical features (therapeutic effect in EAE mice model)” value in data set [5] is “significant reduction”. Further, the EAE clinical scores result in data set [5] (setting [7]), in data set [5] (setting [8]) and in data set [5] (setting [9]) was “significant decrease” throughout. Besides, the “GFAP expression / gliosis” value in data set [6] (prevention regimen), in data set [6] (prophylactic regimen) and in data set [6] (therapeutic regimen) was “significant reduction; also recorded: so robust in preventing gliosis” in each case.
As to `C[C@]12CCC(=O)C[C@H]1N1CCc3c([nH]c4ccccc34)[C@@H]1CO2` [SIMR-1707], the “demyelination / re-myelination (Luxol fast blue)” value in data set [1] (prevention regimen) was “partial improvement in re-myelination; also recorded: partial improvement in demyelination”; in data set [1] (prophylactic regimen) it was “partial improvement in re-myelination; also recorded: partial improvement in demyelination”; in data set [1] (therapeutic regimen), “significant reduction in the demyelination areas”. Also, the “CD3^+ T lymphocyte infiltration” value is given as “less infiltration of CD3^+ T cells” in data set [2] (prevention regimen), “partially reduce; also recorded: less infiltration of CD3^+ T cells” in data set [2] (prophylactic regimen) and “no evidence of any CD3^+ T lymphocyte infiltration; also recorded: completely disappeared” in data set [2] (therapeutic regimen). For the same compound, the body weight entry in data set [3] was “significantly increased the weights”. Also, the results for the “inflammation, perivascular inflammatory infiltrates (H&E)” value in data set [4] (prevention regimen), in data set [4] (prophylactic regimen) and in data set [4] (therapeutic regimen) were “minimal evidence of perivascular inflammatory infiltrates; also recorded: less inflammation”, “minimal evidence of perivascular inflammatory infiltrates; also recorded: less inflammation” and “no evidence of perivascular inflammatory infiltrates; also recorded: completely disappeared”, respectively. Further, in data set [5], the “clinical score severity and clinical features (therapeutic effect in EAE mice model)” value was “significant reduction”. Moreover, the EAE clinical scores entry in data set [5] (setting [7]) was “not when used in the prevention regimen”; in data set [5] (setting [8]), “effective”; in data set [5] (setting [9]), “effective”. The results for the “GFAP expression / gliosis” value in data set [6] (prevention regimen), in data set [6] (prophylactic regimen) and in data set [6] (therapeutic regimen) were “only partial reduction; also recorded: Less gliosis”, “significant reduction; also recorded: no obvious glial cells activation” and “significant reduction; also recorded: no obvious glial cells activation”, respectively.
On to Rituximab [RTX, reference compound], for which the EAE clinical scores entry in data set [5] (RTX as prophylactic drug, IP from day 0 every three days until termination (FIG. 4A)) is “did not exert significant differences”; in data set [5] (RTX as therapeutic drug, 5 μg/mouse IP from first sign of disease every three days until termination (FIG. 4B)), “did not exert significant differences”; in data set [5] (RTX prevention regimen, IP on days −15, −10, −5 and 0, particularly at high concentration, 20 μg/mouse (FIG. 4C)) it was “only worked in the prevention regimen”.
